The source of these data is patent US20240247048A1 (EMORY UNIVERSITY, priority 2021, published 2024).

In the test the test system is KPC-Luc tumors. The test is described as follows: subcutaneous KPC / KPC-Luc pancreatic tumors in C57BL/6 mice. It counts as in vivo, mouse. How it is done: Shown are scrambled peptide plus IgG, Ant308 plus anti-PD1, scrambled peptide plus anti-PD-1, Ant308 plus IgG, and Ant308 plus AMD3100. Tumor volume was measured with calipers. ‘Star’ (*) indicates mice euthanized either due to large tumor volume (>500 mm^3) or ulceration of the skin overlying the tumor.
This decease in tumor volume was more pronounced in combination with anti-PD1 treatment. We also examined the effect of ANT308 in combination with Iso IgG or anti-PD1 antibody had on tumor volume as measured as a percent change in volume (FIG. 8A) and in measured volume (FIG. 8B). […] Investigating this effect more completely, we observed that combination treatment with both anti-PD1 and VIP-R antagonist was able to slow tumor growth relative to control mice treated with scrambled peptide and iso-type matched IgG, with the combination showing a statistically significant improvement in the rate of tumor growth (FIG. 8D). […]
In vivo efficacy studies. […] In the KPC-Luc models, the tumor growth rate was plotted using the tumor flux measurements quantified using IVIS bioluminescent imaging. […] In experiments with subcutaneous tumors, Vernier calipers were used to measure the tumor dimensions and the tumor volume was calculated using the formula: tumor volume=½(length×width×height).

Turning to KPRRPYTSDYTRLRKQMAVKKYLNLILN [ANT308], where the note is “FIG. 9”, the “growth of tumors compared with control mice (scrambled peptide and isotype-matched IgG)” value is “not statistically different”. In addition, the tumor volume entry (day 22, 3 days after a 10-day course, FIG. 7) was “reduced tumor volume”.
